4 compounds from publication PMC4385830, “Group I Paks as therapeutic targets in NF2-deficient meningioma” (Oncotarget, 2015) can be followed below.

Where only a bound is given, the exact number is not on record here.

One experiment has as its system Arachnoid cell AC07. Nature of the experiment: Cell viability, MTT assay. The conditions noted are these: NF2+/+, 72 hrs. Format: cell-based. The procedure: (§1) Cells were plated at 3 × 10^3 cells per well in 96-well plates overnight and treated with various concentrations of Pak inhibitors for 72 hours. Cell viability was measured by MTT assay and the half maximal inhibitory concentration (IC50) was calculated.
(Tetrazolium dyes change colour on reduction, which living cells bring about.)

A further experiment has as its system Benign Ben-Men-1. Nature of the experiment: Cell viability, MTT assay. The conditions noted are these: for effect on growth of cells: Ben-Men, 3 days, GSK690693 effect only at high doses; for IC50: NF2−/−, 72 hrs, MTT. It is filed as cell-based. The procedure:
as §1

The subject of a further experiment is Benign MN328. Nature of the experiment: Cell viability, MTT assay. The conditions noted are these: NF2+/+, 72 hrs. Format: cell-based. The procedure:
as §1

Another experiment has as its system Malignant KT21-MG1. Nature of the experiment: Cell viability, MTT assay. It is filed as cell-based. Particulars: for effect on growth of cells: KT21, 3 days, GSK690693 effect only at high doses; for IC50: NF2−/−, 72 hrs, MTT. The procedure: as §1
The next experiment concerns Malignant MN525. Put plainly: Cell viability, MTT assay. It is filed as cell-based. Particulars: NF2+/+, 72 hrs. The procedure: as §1
A further experiment concerns Ben-Men cells. Nature of the experiment: Immunoblot of signaling pathways. It is filed as cell-based. The procedure: (§2) Protein concentration was determined, and equal amount of total proteins were separated by SDS-PAGE. […] GAPDH and β-actin were used as loading control.
On the technique in general: A western blot detects proteins with antibodies after separation by electrophoresis.

The next experiment relates to KT21 or Ben-Men cells. Put plainly: Immunoblot of signaling pathways. Format: cell-based. The procedure: as §2
The subject of another experiment is KT21 cells. Nature of the experiment: Apoptosis, Annexin V positive cells by flow cytometry. It is filed as cell-based. Particulars: 3 days, vs DMSO. On the procedure:
For detection of apoptosis, subconfluent cells were plated in 60-mm plate and treated with inhibitors for 3 days. Cells were collected, washed and resuspended in 1x binding buffer with Annexin V-EGFP and propidium iodide (BioVision, CA) and incubated at room temperature for 5 min in dark. Apoptosis was measured using FACS with collecting 10,000 events per sample.

For experiment [1], the system named is KT21-MG1-Luc5D intracranial xenografts. Put plainly: Orthotopic meningioma model, bioluminescence imaging. Particulars: SCID mice; oral gavage 90 mg/kg/day; 2 weeks; BLI.
Source text: Eight-week-old SCID mice were anesthetized with ketamine and their heads were stabilized in a small animal stereotaxic instrument. A midline sagittal incision was made on the cranial skin. A burr hole was drilled in the skull with coordinated 1.5 mm anterior and 1.5 mm lateral to the right from the bregma and a 5-μl Hamilton syringe loaded with cells was slowly inserted through the burr hole and ~0.5 mm downward to the skull base. The incision was closed using surgical absorbable gut suture.
Mice transplanted with meningioma cells were imaged using Xenogen IVIS Spectrum (Caliper, MA). Mice were injected intraperitoneally with Rediject D-Luciferin Ultra at 150 mg/kg under anesthetized with isofluorane. Luciferase activity was measured and all bioluminescence imaging was conducted when perk signal was reached. Once tumors were established (~3 weeks post-transplantation), mice were divided into groups for shRNA studies or drug treatments.
For drugs treatment, mice were dosed with Pak inhibitors daily for 14–21 days and tumor growth was monitored every week by BLI. Mean luminescence for each treatment groups (n = 5) was calculated as described previously.

For `O=C(NOC[C@H](O)CO)c1ccc(F)c(F)c1Nc1ccc(I)cc1F` [PD325901], the IC50 is above 20 µM in the experiment with Arachnoid cell AC07; above 20 µM in the experiment with Benign Ben-Men-1; above 20 µM with Benign MN328; above 7 µM with Malignant KT21-MG1; above 20 µM in the experiment with Malignant MN525. Moreover, the “effect on growth of cells” value with Benign Ben-Men-1 and in the experiment on Malignant KT21-MG1 was “no effect” throughout.
As to `Oc1ccc2ccccc2c1SSc1c(O)ccc2ccccc12` [IPA3, reference compound], the “basal level (expression) of β-catenin” value with Ben-Men cells is given as “induction”. In addition, in the experiment with KT21 or Ben-Men cells (immunoblot), the Pak activity entry is listed as “paradoxical stimulation”.
As to `CCn1c(=O)c(-c2ccc(-c3cncs3)cc2Cl)cc2cnc(Nc3ccc(N4CCN(C)CC4)cc3)nc21` [Frax597], the half-inhibitory concentration (IC50) with Arachnoid cell AC07 was found to be 1.18 µM; in the experiment with Benign Ben-Men-1 it was 0.393 µM; in the experiment on Benign MN328, 2.81 µM; in the experiment on Malignant KT21-MG1, 2.93 µM; in the experiment with Malignant MN525, 1.59 µM. The “number of apoptotic cells” value in the experiment on KT21 cells is recorded as “substantial increase”. The “basal level (expression) of β-catenin” value in the experiment with Ben-Men cells is “did not impact”. The “phosphorylation of β-catenin” value with Ben-Men cells is on record as “diminished”. For the same compound, the “phosphorylation of Pak and Mek1 (at Ser298)” value in the experiment with KT21 or Ben-Men cells (inhibitors at IC50 concentration) is listed as “dramatically inhibited”. For the same compound, the “impaired KT21 tumor growth compared to vehicle cohort” value in experiment [1] amounted to 50%.
With `CCn1c(-c2nonc2N)nc2c(C#CC(C)(C)O)ncc(OC[C@H]3CCCNC3)c21` [GSK690693], the IC50 in the experiment with Arachnoid cell AC07 is above 20 µM; in the experiment with Benign Ben-Men-1, 3.27 µM; with Benign MN328 it was above 20 µM; in the experiment on Malignant KT21-MG1, 4.24 µM; in the experiment with Malignant MN525 it was above 20 µM. For the same compound, the “effect on growth of cells” value in the experiment with Benign Ben-Men-1 and in the experiment with Malignant KT21-MG1 was “impeded the growth” throughout.

The term IC50 denotes the midpoint of a concentration-inhibition curve. High values mean weaker potency, low ones greater potency.
